TGI and GI50 data for 25 compounds are collected here from PubChem BioAssay (NCI).

Test systems include MDA-MB-435; PC-3 prostate; DMS 114 small cell lung; DMS 273 small cell lung; KM20L2 colon; LXFL 529 NSCLC; DLD-1 colon; MDA-N.
Holding throughout (assay): inhibition of tumour cell growth, NCI panel, 48 h

Several values for one entry are separate records, joined by “and”; a condition that tells them apart may be missing. Equal entries are not always repeated.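 Dose response: 5 concentrations. Exposure: 48 h. Format: 96-well plates. Endpoint: linear interpolation; highest concentration if not reached. Abbreviation: GI50, concentration required for 50% inhibition of growth. At the TGI there is no net growth.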

Take `CC12CCC(Br)C(C)(C)C1CC=C1C(=O)OCC1O2` (stereo not given): the TGI with MDA-MB-435 came to 35.6 µM; in the test with PC-3 prostate, 24.2 µM.
As for `C=C1C(=O)O[C@H]2[C@H]1CC/C(Cn1cc(-c3ccccc3C(F)(F)F)nn1)=C\CC[C@@]1(C)O[C@@H]21`, in the test with MDA-MB-435, the GI50 is 2.18 µM and the TGI is 7.11 µM. Also, in the test on PC-3 prostate, the GI50 was 4.32 µM and the TGI was 15.3 µM.
On to `O=C(NC12CC3CC(CC(C3)C1)C2)C(=O)c1c[nH]c2ccccc12`, for which the TGI in the test with DMS 114 small cell lung was found to be 36 µM; in the test with DMS 273 small cell lung it was 29.6 µM; in the test with KM20L2 colon, 19.7 µM; in the test with LXFL 529 NSCLC it was 26.5 µM.
Regarding `COc1ccc2c(c1)C(=O)c1c-2n(CCCI)c(=O)c2cc([N+](=O)[O-])ccc12`, the GI50 was 0.449 µM and 1.49 µM in the test on MDA-MB-435; 0.279 µM and 1.42 µM with PC-3 prostate. The TGI was 5.43 µM and 16.5 µM with MDA-MB-435; 30.4 µM and > 100 µM in the test with PC-3 prostate.
In turn, `CC(=O)OCc1cc2ccccc2nc1C(Br)(Br)Br` showed a TGI with MDA-MB-435 of 27 µM.
`O=C1C(Cl)=C(NCc2ccco2)C(=O)c2ccccc21`: in the test with MDA-MB-435, the GI50 is 2.06 µM and the TGI came out at 3.89 µM. Moreover, in the test with PC-3 prostate, the GI50 was 33.6 µM and the TGI was more than 100 µM.
In the same order, the values of `Oc1ccc2oc3ncc(Br)c(-c4ccccc4)c3c2c1` are more than 100 µM, more than 100 µM, more than 100 µM and more than 100 µM.
For `N#C/C(=C\c1ccc(Br)cc1)n1nnc2ccc(F)cc21` the same measures were 0.19 µM, 0.403 µM, 0.953 µM and 2.89 µM.
In the same order, the values of `CN(C)CCCNC(=O)c1cc(NC(=O)c2cc(NC(=O)CCNS(=O)(=O)c3ccc4c(c3)C(=O)c3ccccc3C4=O)cn2C)cn1C` are more than 100 µM, more than 100 µM, more than 100 µM and more than 100 µM.
In the case of `O=c1cccccc1[O-].O=c1cccccc1[O-].O=c1cccccc1[O-].[La+3]`, the GI50 was 22.7 µM in the test with DLD-1 colon, 5.98 µM with DMS 273 small cell lung and 17 µM in the test with KM20L2 colon. For the same compound, the TGI in the test with DLD-1 colon, with DMS 273 small cell lung and in the test with KM20L2 colon was more than 100 µM throughout.
As for `COC(=O)c1c2cccccc-2c(Cc2c3cccccc-3c(C(=O)OC)c2O)c1O`, the TGI with DLD-1 colon, in the test on DMS 114 small cell lung, in the test on DMS 273 small cell lung and in the test on KM20L2 colon was more than 100 µM in each case.
Turning to `O=C(OC[C@H]1O[C@H](OC(=O)c2cc(O)c(O)c(OC(=O)c3cc(O)c(O)c(O)c3)c2)[C@H](OC(=O)c2cc(O)c(O)c(OC(=O)c3cc(O)c(O)c(O)c3)c2)[C@@H](OC(=O)c2cc(O)c(O)c(OC(=O)c3cc(O)c(O)c(O)c3)c2)[C@@H]1OC(=O)c1cc(O)c(O)c(OC(=O)c2cc(O)c(O)c(O)c2)c1)c1cc(O)c(O)c(OC(=O)c2cc(O)c(O)c(O)c2)c1`, the GI50 in the test with MDA-MB-435 is 1.5 µM; in the test on PC-3 prostate it was 2.33 µM. In addition, the TGI in the test with MDA-MB-435 is 7.89 µM; with PC-3 prostate, more than 25 µM.
For `O=C1c2ccccc2S(=O)(=O)c2cc(-c3nn[nH]n3)ccc21`, the TGI in the test on MDA-MB-435, in the test with MDA-N and in the test with PC-3 prostate was more than 100 µM in each case.
Consider `O=c1c(-c2ccccc2)coc2cc(OC/C(=N/O)c3ccccc3)ccc12`, for which, in the test on MDA-MB-435, the GI50 is 20.5 µM and the TGI was more than 100 µM. Also, in the test on PC-3 prostate, the GI50 was 17.4 µM and the TGI came to 46 µM.
For `CCOC(=O)c1c2c(n3ccccc13)C(=O)c1ncccc1C2=O` the same measures were 0.194 µM, 16.4 µM, 0.361 µM and 14.9 µM.
For `O=C1C(=O)c2cccnc2-c2ncccc21` the same measures were 0.263 µM, 1.02 µM, 0.208 µM and 1.27 µM.
Regarding `O=c1c(O)c(-c2cc(O)c(O)c(O)c2)oc2cc(O)cc(O)c12`, the TGI in the test with MDA-MB-435 was 34.8 µM; in the test with MDA-N, 24.5 µM; in the test with PC-3 prostate, more than 100 µM.
As for `O=C(O)C1CC(O)CN1` (stereo not given), the TGI in the test with MDA-MB-435, in the test with MDA-N and in the test on PC-3 prostate was more than 100 µM throughout.
Consider `Cc1cn(-c2cc(NC(=O)c3ccc(C)c(Nc4nccc(-c5cccnc5)n4)c3)cc(C(F)(F)F)c2)cn1`, for which the GI50 in the test on MDA-MB-435 is 1.79 µM and 1.57 µM; in the test on PC-3 prostate, 3.19 µM and 3.23 µM. In addition, the TGI in the test with MDA-MB-435 was 4.65 µM and 4.76 µM; in the test with PC-3 prostate, more than 10 µM.
With `Cc1ccc(O)c(NC(=O)c2ccc(CNc3ccnc(C(F)(F)F)c3)cc2)c1`, in the test with MDA-MB-435, the GI50 was 4.26 µM and the TGI worked out at 22.1 µM. For the same compound, in the test on PC-3 prostate, the GI50 was 9.5 µM and the TGI worked out at 38 µM.
For `CN(C)c1ccc(/C=C/c2cc[n+](C)c(/C=C/c3ccc(N(C)C)cc3)c2)cc1` the same measures were 0.346 µM, 1.32 µM, 0.248 µM and 1.26 µM.
Regarding `COc1ccccc1NC(=O)CC(=O)N/N=C/c1ccc(N(CCC#N)S(=O)(=O)c2ccccc2)cc1`, the TGI in the test on DLD-1 colon, in the test on DMS 114 small cell lung, with KM20L2 colon and with LXFL 529 NSCLC was more than 100 µM in each case.
Regarding `COc1cccc(/C=N/C(/N=C/c2cccc(OC)c2O)c2cccc(OC)c2O)c1O`, the TGI in the test with MDA-MB-435, with MDA-N and with PC-3 prostate was more than 100 µM each time.
Regarding `CCCCCCCc1cc2c3c(nc4ccccc42)C(=O)c2cccnc2-c3n1`, the values for the GI50 with MDA-MB-435, in the test with MDA-N and in the test with PC-3 prostate were 1.96 µM, 4.44 µM and 4.39 µM, respectively. The TGI was found to be 4.33 µM in the test on MDA-MB-435, 9.12 µM in the test with MDA-N and 10.9 µM in the test on PC-3 prostate.
On to `C#CCOc1cccc(Nc2ncnc3cc(NC(=O)CCl)ccc23)c1`, for which, in the test with MDA-MB-435, the GI50 is 3.1 µM and the TGI was 16.4 µM. Moreover, in the test on PC-3 prostate, the GI50 was 2.57 µM and the TGI was determined as 12 µM.
